# According to publication PMC4189701 (Drug Design, Development and Therapy, 2014):
# Values joined by “and” are separate entries in the source; they are usually repeats but may differ in a detail not shown here. Identical values can stand only once. “Also recorded” adds a separate entry of the source. Like-named read-outs stand apart in the source and are kept apart here.
# What was measured:
# CYP3A4 mRNA = CYP3A4 mRNA content in primary human hepatocytes; type: in vitro ADME; details: human
# CYP3A = CYP3A enzyme activity; type: in vitro ADME; details: primary human hepatocytes
# [1] = cited from earlier work; for dose proportionality of Cmax or AUC: healthy subjects
# Tolerability [2] = type: in vivo, human
# Tolerability [3] = type: in vivo, human; details: single dose
# [4] = test system: cytochrome P450 (CYP)-3A4; details: human hepatocytes; ref unpublished data; cited from earlier work
# [5] = Single-dose pharmacokinetics in healthy subjects; type: in vivo, human; details: for AUC(0-inf) / AUC(0-t) / Cmax / Tmax / half-life: human, plasma, oral; for AUC∞/dose / Cmax/dose / fe / CL/F: mean ± SD; for fe: unchanged in urine
# K103N = details: major efavirenz-resistant mutation; ref unpublished data; cited from earlier work
# [6] = Tolerability over the whole study; type: in vivo, human
# Multiple-dose = type: in vivo, human; details: for steady state attained: RM-ANOVA of predose concentrations; for Accumulation index: AUC144–168h/AUC0–24h; for Accumulation index / AUCτ,ss/dose / CL/F / Cmax,ss/dose / fe: mean ± SD; for fe: unchanged in urine
# [7] = test system: CYP3A4 messenger ribonucleic acid (mRNA); assay: CYP3A4 mRNA content in primary human hepatocytes; type: in vitro ADME; details: summary in words
# [8] = Pharmacokinetics over single- and multiple-dose studies together; type: in vivo, human
# [9] = test system: laboratory strains and clinical HIV-1 isolates; details: preclinical; ref unpublished data; cited from earlier work
# [10] = mice and dogs; preclinical studies; cited from earlier work
# [11] = 75–600 mg, single or multiple doses
structure (smiles),measurement,setting,value
"CCC1(c2ccccc2)C(=O)NC(=O)NC1=O [Phenobarbital, reference compound]",fold induction at 1 mM,CYP3A4 mRNA,8.9
same,fold induction at 1 mM,"CYP3A; human, probe testosterone",9.9
O=C1Nc2ccc(Cl)cc2[C@@](C#CC2CC2)(C(F)(F)F)O1 [efavirenz],autoinduction phenomenon,[1],autoinduction phenomenon has also been observed
same,dose proportionality of Cmax or AUC,"[1]; single oral administration 100–1,600 mg",increased less than dose-proportionally
Cc1ccnc2c1NC(=O)c1cccnc1N2C1CC1 [nevirapine],autoinduction phenomenon,[1],autoinduction phenomenon has also been observed
same,dose proportionality of Cmax or AUC,[1]; single oral administration 2.5–400 mg,increased less than dose-proportionally
"CCn1c(C(=O)c2cc(C)cc(C#N)c2)c(C(C)C)c(=O)[nH]c1=O [KM-023, 3-[3-ethyl-5-isopropyl-2,6-dioxo-1,2,3,6-tetrahydro-pyrimidine-4-carbonyl]-5-methyl benzonitrile]","Gastrointestinal disorders, all AEs, number of events",Tolerability [2]; multiple doses,3 (3)
same,"Gastrointestinal disorders, all AEs, number of subjects",Tolerability [2]; multiple doses,3 (3)
same,"Gastrointestinal disorders, drug-related AEs, number of events",Tolerability [2]; multiple doses,3 (3)
same,"Gastrointestinal disorders, drug-related AEs, number of subjects",Tolerability [2]; multiple doses,3 (3)
same,"Nervous system disorders, all AEs, number of events",Tolerability [2]; multiple doses,4 (4)
same,"Nervous system disorders, all AEs, number of subjects",Tolerability [2]; multiple doses,4 (4)
same,"Nervous system disorders, drug-related AEs, number of events",Tolerability [2]; multiple doses,4 (4)
same,"Nervous system disorders, drug-related AEs, number of subjects",Tolerability [2]; multiple doses,4 (4)
same,"Oropharyngeal, respiratory, thoracic, and mediastinal disorders, all AEs, number of events",Tolerability [2]; multiple doses,13
same,"Oropharyngeal, respiratory, thoracic, and mediastinal disorders, all AEs, number of subjects",Tolerability [2]; multiple doses,12
same,"Oropharyngeal, respiratory, thoracic, and mediastinal disorders, drug-related AEs, number of events",Tolerability [2]; multiple doses,9
same,"Oropharyngeal, respiratory, thoracic, and mediastinal disorders, drug-related AEs, number of subjects",Tolerability [2]; multiple doses,8
same,"Skin and subcutaneous tissue disorders, all AEs, number of events",Tolerability [2]; multiple doses,4
same,"Skin and subcutaneous tissue disorders, all AEs, number of subjects",Tolerability [2]; multiple doses,3
same,"Skin and subcutaneous tissue disorders, drug-related AEs, number of events",Tolerability [2]; multiple doses,1 (1)
same,"Skin and subcutaneous tissue disorders, drug-related AEs, number of subjects",Tolerability [2]; multiple doses,1 (1)
same,"Total, drug-related AEs, number of subjects",Tolerability [2]; multiple doses,16
same,"epistaxis, occurrences",Tolerability [2]; multiple-dose study,five
same,"epistaxis, subjects",Tolerability [2]; multiple-dose study,four
same,"General disorder, all AEs, number of events",Tolerability [3],2 (2)
same,"General disorder, all AEs, number of subjects",Tolerability [3],2 (2)
same,"General disorder, drug-related AEs, number of events",Tolerability [3],1 (1)
same,"General disorder, drug-related AEs, number of subjects",Tolerability [3],1 (1)
same,"Genitourinary disorders, all AEs, number of events",Tolerability [3],1 (1)
same,"Genitourinary disorders, all AEs, number of subjects",Tolerability [3],1 (1)
same,"Genitourinary disorders, drug-related AEs, number of events",Tolerability [3],1 (1)
same,"Genitourinary disorders, drug-related AEs, number of subjects",Tolerability [3],1 (1)
same,"Musculoskeletal disorders, all AEs, number of events",Tolerability [3],2
same,"Musculoskeletal disorders, all AEs, number of subjects",Tolerability [3],1
same,"Musculoskeletal disorders, drug-related AEs, number of events",Tolerability [3],2
same,"Musculoskeletal disorders, drug-related AEs, number of subjects",Tolerability [3],1
same,"Nervous system disorders, all AEs, number of events",Tolerability [3],4 (4)
same,"Nervous system disorders, all AEs, number of subjects",Tolerability [3],4 (4)
same,"Nervous system disorders, drug-related AEs, number of events",Tolerability [3],3 (3)
same,"Nervous system disorders, drug-related AEs, number of subjects",Tolerability [3],3 (3)
same,"Ophthalmologic disorders, all AEs, number of events",Tolerability [3],1 (1)
same,"Ophthalmologic disorders, all AEs, number of subjects",Tolerability [3],1 (1)
same,"Oropharyngeal, respiratory, thoracic, and mediastinal disorders, all AEs, number of events",Tolerability [3],7
same,"Oropharyngeal, respiratory, thoracic, and mediastinal disorders, all AEs, number of subjects",Tolerability [3],6
same,"Oropharyngeal, respiratory, thoracic, and mediastinal disorders, drug-related AEs, number of events",Tolerability [3],2
same,"Oropharyngeal, respiratory, thoracic, and mediastinal disorders, drug-related AEs, number of subjects",Tolerability [3],1
same,"Total, all AEs, number of events",Tolerability [3],17
same,CYP3A4 induction,[4],moderately induced
same,AUC(0-inf),[5]; 75 mg,11100 ng·h/mL
same,AUC(0-t),[5]; 75 mg,8740 ng·h/mL
same,Cmax,[5]; 75 mg,440 ± 68.3 ng/mL
same,Tmax,[5]; 75 mg,2 h
same,half-life,[5]; 75 mg,29.3 ± 12.5 h
same,AUC(0-inf),[5]; 150 mg,14100 ng·h/mL
same,AUC(0-t),[5]; 150 mg,11200 ng·h/mL
same,Cmax,[5]; 150 mg,621 ± 105 ng/mL
same,Tmax,[5]; 150 mg,2 h
same,half-life,[5]; 150 mg,29.5 ± 11.9 h
same,AUC(0-inf),[5]; 300 mg,18100 ng·h/mL
same,AUC(0-t),[5]; 300 mg,14700 ng·h/mL
same,Cmax,[5]; 300 mg,832 ± 201 ng/mL
same,Tmax,[5]; 300 mg,2 h
same,half-life,[5]; 300 mg,31.2 ± 21.1 h
same,AUC(0-inf),[5]; 600 mg,33700 ng·h/mL
same,AUC(0-t),[5]; 600 mg,26800 ng·h/mL
same,Cmax,[5]; 600 mg,1250 ng/mL
same,Tmax,[5]; 600 mg,3 h
same,half-life,[5]; 600 mg,29.7 ± 15.6 h
same,AUC∞/dose,[5]; single dose 75 mg,148.6 ± 64.1 ng·mL·h/mg
same,Cmax/dose,[5]; single dose 75 mg,5.9 ± 0.9 ng/mL/mg
same,fe,[5]; single dose 75 mg,0.94±0.64%
same,AUC∞/dose,[5]; single dose 150 mg,94.3 ± 38.2 ng·mL·h/mg
same,CL/F,[5]; single dose 150 mg,24.8 ± 5.6 L/h
same,Cmax/dose,[5]; single dose 150 mg,4.1 ± 0.7 ng/mL/mg
same,fe,[5]; single dose 150 mg,0.65±0.34%
same,AUC∞/dose,[5]; single dose 300 mg,60.4 ± 30.5 ng·mL·h/mg
same,CL/F,[5]; single dose 300 mg,40.3 ± 12.4 L/h
same,Cmax/dose,[5]; single dose 300 mg,2.8 ± 0.7 ng/mL/mg
same,fe,[5]; single dose 300 mg,0.52±0.41%
same,AUC∞/dose,[5]; single dose 600 mg,56.2 ± 31.1 ng·mL·h/mg
same,CL/F,[5]; single dose 600 mg,50.0 ± 21.9 L/h
same,Cmax/dose,[5]; single dose 600 mg,2.1 ± 0.7 ng/mL/mg
same,fe,[5]; single dose 600 mg,0.25±0.17%
same,activity against K103N,K103N,showed activity against K103N
same,"epistaxis, occurrences","[6]; both studies, all deemed drug-related",seven
same,"changes from baseline in clinical laboratory test results, vital signs, electrocardiography, computerized impedance cardiography, or physical examinations",[6]; single or multiple doses,no clinically meaningful changes from baseline
same,serious AEs,[6]; single or multiple doses 75–600 mg,No serious AEs occurred
same,tolerability,"[6]; single or multiple doses 75–600 mg, healthy subjects",generally well tolerated without serious adverse events; also recorded: well tolerated
same,steady state attained,Multiple-dose; 75 mg once daily,> 4 days
same,accumulation after multiple doses,Multiple-dose; 600 mg dose group,0.6 fold
same,steady state attained,Multiple-dose; 150–600 mg once daily,> 6 days
same,Accumulation index,Multiple-dose; multiple doses 75 mg,1.1±0.2
same,"AUCτ,ss/dose",Multiple-dose; multiple doses 75 mg,49.3 ± 13.4 ng·mL·h/mg
same,CL/F,Multiple-dose; multiple doses 75 mg,21.5 ± 5.4 L/h
same,"Cmax,ss/dose",Multiple-dose; multiple doses 75 mg,5.1 ± 1.7 ng/mL/mg
same,fe,Multiple-dose; multiple doses 75 mg,0.52±0.40%
same,Accumulation index,Multiple-dose; multiple doses 150 mg,1.1±0.5
same,"AUCτ,ss/dose",Multiple-dose; multiple doses 150 mg,55.0 ± 27.1 ng·mL·h/mg
same,CL/F,Multiple-dose; multiple doses 150 mg,22.3 ± 10.2 L/h
same,"Cmax,ss/dose",Multiple-dose; multiple doses 150 mg,4.9 ± 1.7 ng/mL/mg
same,fe,Multiple-dose; multiple doses 150 mg,0.75±0.52%
same,Accumulation index,Multiple-dose; multiple doses 300 mg,0.9±0.2
same,"AUCτ,ss/dose",Multiple-dose; multiple doses 300 mg,22.7 ± 6.3 ng·mL·h/mg
same,CL/F,Multiple-dose; multiple doses 300 mg,48.0 ± 17.6 L/h
same,"Cmax,ss/dose",Multiple-dose; multiple doses 300 mg,2.4 ± 0.6 ng/mL/mg
same,fe,Multiple-dose; multiple doses 300 mg,0.28±0.15%
same,Accumulation index,Multiple-dose; multiple doses 600 mg,0.6 and 0.6±0.1
same,"AUCτ,ss/dose",Multiple-dose; multiple doses 600 mg,17.1 ± 9.5 ng·mL·h/mg
same,CL/F,Multiple-dose; multiple doses 600 mg,71.9 ± 28.1 L/h
same,"Cmax,ss/dose",Multiple-dose; multiple doses 600 mg,1.8 ± 0.8 ng/mL/mg
same,fe,Multiple-dose; multiple doses 600 mg,0.18±0.12%
same,fold induction at 0.3 µM,CYP3A4 mRNA,2.3
same,fold induction at 3 µM,CYP3A4 mRNA,6.2
same,fold induction at 30 µM,CYP3A4 mRNA,6.2
same,CYP3A4 messenger ribonucleic acid induction,[7],CYP3A4 messenger ribonucleic acid induction
same,dose proportionality of Cmax and AUC,[8]; [11],Dose proportionality was not observed; also recorded: less than dose-proportional nonlinear pharmacokinetics
same,pharmacokinetic characteristics (linearity),[8]; [11],dose- and time-dependent nonlinear pharmacokinetic characteristics; also recorded: dose-and time-dependent nonlinear pharmacokinetics; also recorded: dose- and time-dependent nonlinear pharmacokinetic profiles
same,fe,"[8]; all dose levels, unchanged drug in urine",less than 1%
same,antiviral activity,[9],low-nanomolar range
same,fold induction at 0.3 µM,"CYP3A; human, probe testosterone",1.9
same,fold induction at 3 µM,"CYP3A; human, probe testosterone",5
same,fold induction at 30 µM,"CYP3A; human, probe testosterone",8.8
same,CYP3A enzyme activation,CYP3A; summary in words,exhibited a potential for CYP3A enzyme activation
same,findings in in vivo safety pharmacology studies,[10],no significant findings
